Data set [1] can be described thus: Vial inversion test: gelation time and critical gelation concentration. It is filed as physicochemical. The conditions noted are these: aqueous solution, 1× PBS. How it is done: In one embodiment, an instant hydrogel formation can be observed when PBS buffer is added to the peptide solution. In one embodiment, the gelation time is determined using a vial inversion test performed at different peptide concentrations in 1×PBS to meet physiological conditions. FIG. 13 compares the gelation time of IVFK and IVZK at different concentration.
The lyophilized peptide powders were dissolved in Milli-Q® water by vortexing into a clear solution at room temperature. Then, 10× phosphate-buffered saline (PBS) was added to the aqueous peptide solution at a final volume ratio of peptide solution to 10×PBS of 9:1. The vial inversion test was performed with different peptide concentrations to find the critical gelation concentration (CGC). To study the spatial structure of the peptide solution during the assembly process, two-dimensional (2D) NMR was performed using Bruker Avance III 600 MHz. Furthermore, scanning electron microscopy (SEM) was performed to visualize the morphology of the self-assembled nanofibers.

Data set [2] has as its system BM-MSCs. Description: Alamar Blue cell viability assay. It is filed as cell-based, human. To be noted: compared to controls (2D and Matrigel). The protocol:
In one embodiment, the hydrogels are screened for biocompatibility, cell attachment, and proliferation. Different concentrations of the peptides are tested for their biocompatibility of the cells within the constructs. […] Control is the cells incubated for 48 h without peptides.
The hBM-MSCs were cultured in T75 flasks and incubated in a CO2 incubator maintained at 37° ° C. with 5% CO2. Culture media were replaced every 2-3 days until the cells reached 80% confluency. Confluent cells were trypsinized and subcultured, and cells at passage 3-6 were used for the study. For the 3D culture, different peptides were sterilized by exposure to UV light for 30 min. Then, 200 μL of 3D constructs in the 48-well plate was formed by mixing the peptide solution (IVZK=3 mg/mL (5.42 mM); IVFK=4 mg/mL (7.31 mM)) with 40,000 cells suspended in 2×PBS. Culture plates were incubated for 5 min at 37° C., and the complete medium was added carefully to the culture plates. […] The morphology, cell proliferation, and mineralization of the cells in each scaffold were analyzed and compared. […]
A volume of 10 μL of Alamar blue stock solution was added to 100 μL of media in each well. […] The fluorescence was measured at an excitation wavelength of 530 nm, and the emission at 590 nm. The viability percentage was calculated against the control (2D).
A general note: Alamar Blue is a resazurin reagent that responds to reducing activity.

For data set [3], the system named is BM-MSCs. Description: Osteocalcin immunostaining, confocal microscopy. The format is cell-based, human. From the text:
In one embodiment, the BM-MSCs differentiate to the osteogenic lineage. The expression of osteocalcin is stained and imaged after 3 weeks of culture in osteogenic medium using confocal microscopy, as shown in FIG. 33. FIG. 33 is confocal images showing the expression of osteocalcin stained in green, and the cell nuclei stained in blue using DAPI. The scale bar in FIG. 33 is 100 μm. […] Additionally, the levels of alkaline phosphatase (ALP), an early osteogenic marker expressed by osteoblast cells, are also measured to confirm the commitment of BM-MSCs toward the osteogenic lineage. […] Furthermore, the ALP activity increased with time during the initial 2 weeks as an indicator of osteogenic differentiation. In FIG. 34, * means p<0.05, indicating statistical significance.
Immunostaining was performed after each time point of culture. Briefly, cells were fixed by 4% paraformaldehyde solution for 30 min and incubated in a cold cytoskeleton buffer (3 mM MgCl2, 300 mM sucrose, and 0.5% Triton X-100 in PBS solution) for 5 min to permeabilize the membranes of the cells. The permeabilized cells were incubated in a blocking buffer solution, 5% fetal bovine serum (FBS), 0.1% Tween-20, and 0.02% […] in PBS for 30 min. […]

The test system of data set [4] is BM-MSCs. Nature of the data set: Quantitative RT-PCR of osteogenic genes. The format is cell-based, human. The protocol:
Real-time polymerase chain reaction (PCR) values of the BM-MSC gene expressions of the bone morphogenetic protein (BMP-2) (FIG. 37), bone sialoprotein 2 (IBSP) (FIG. 35), osteopontin (OPN) (FIG. 38), osterix (OSX) (FIG. 39), and RUNX2 (FIG. 36) are evaluated after 30 days of culture. […] In FIGS. 35-39, * mens p<0.05 and ** means p<0.001, indicating statistical significance.
The BM-MSCs were cultured on different scaffolds with an osteogenic medium for 4 weeks. Total RNA was extracted using the TRIzol™ reagent. RNA concentration and purity were measured using a NanoDrop® 8000 spectrophotometer (Thermo Fisher®). Complementary DNA (cDNA) was synthesized using the ImProm-II Reverse Transcription System. Primer sequences were taken from previously published studies and are summarized in below. Relative quantification was performed using the comparative CT (2-ΔΔCT) and normalized against glyceraldehyde 3-phosphate dehydrogenase (GAPDH), which was used as a housekeeping gene to calculate the fold change in gene expression. BM-MSCs on a 2D culture using basal media were used as controls.

“Ac-Ile-Val-Phe-Lys-NH2 (Ac-IVFK-NH2) [aromatic self-assembling tetrapeptide forming hydrogel scaffold]”: the “critical gelation concentration (CGC)” value in data set [1] is listed as 2 mg/mL. In addition, the “cell growth (Alamar Blue)” value with BM-MSCs [2] was “significant increase in cell growth compared to both controls”. In addition, the osteocalcin expression result in the data set with BM-MSCs [3] (3 weeks in osteogenic medium) is recorded as “comparable to those cultured in the collagen control group”. Further, in the data set with BM-MSCs [3] (20 kPa scaffold compared to the others), the osteocalcin expression entry was “more intense”. Also, in the data set with BM-MSCs [4] (20 kPa hydrogel versus 50 kPa scaffold), the “expression of osteogenic genes OPN and BMP-2” value is “able to support cell differentiation much better than the 50 kPa scaffold”. In addition, in the data set with BM-MSCs [4] (after 30 days of culture), the “IBSP gene expression level” value was “highest”, the OPN gene expression result is listed as “upregulated”, the OSX expression level entry is on record as “low” and the Runx2 gene expression result is recorded as “higher”.

The record behind these values is patent publication US12109327B2, “Scaffolds from self-assembling tetrapeptides support 3D spreading, osteogenic differentiation and angiogenesis of mesenchymal stem cells” (KING ABDULLAH UNIVERSITY OF SCIENCE AND TECHNOLOGY, priority 2020, dated 2024).
